Earlier results, collected in patent publication US20240301505A1, “URINARY TRACT CANCER TREATMENT GUIDED BY MUTATIONAL LANDSCAPE” (BROWN UNIVERSITY, priority 2021, published 2024).
Blank lines part the entries; values can stand above or below the molecule they belong to.

Columns and labels:
[1] = test system: p21 and p53 protein expression; settings: accompanied by an increase in DNA damage and intracellular hydroxyl radicals
p21 protein expression = settings: upon treatment
[2] = test system: advanced breast cancer with mutations in PIK3CA, AKT1 or PTEN and/or PTEN loss; settings: monotherapy, patients with advanced breast cancer with mutations in PIK3CA
CHK1 = target: T1, CHK1 (Homo sapiens, UniProt O14757); settings: in combination with gemcitabine and irinotecan
T1 sequence (O14757 1-476): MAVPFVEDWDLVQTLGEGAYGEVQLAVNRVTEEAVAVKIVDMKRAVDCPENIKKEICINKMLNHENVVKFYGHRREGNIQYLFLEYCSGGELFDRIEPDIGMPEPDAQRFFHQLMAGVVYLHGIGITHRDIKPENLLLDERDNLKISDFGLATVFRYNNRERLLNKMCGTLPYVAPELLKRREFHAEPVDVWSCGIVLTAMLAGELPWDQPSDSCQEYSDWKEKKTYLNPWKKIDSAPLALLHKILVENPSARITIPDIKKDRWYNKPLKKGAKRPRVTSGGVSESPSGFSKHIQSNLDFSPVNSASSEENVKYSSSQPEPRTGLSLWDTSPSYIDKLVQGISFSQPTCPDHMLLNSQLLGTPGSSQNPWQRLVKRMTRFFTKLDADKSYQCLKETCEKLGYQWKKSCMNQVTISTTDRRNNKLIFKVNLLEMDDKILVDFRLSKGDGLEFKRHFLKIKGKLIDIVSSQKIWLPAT

CHK2 = CHK2 (Homo sapiens, UniProt O96017); settings: in combination with topotecan or camptothecin
CHK2, sequence (O96017 whole entry): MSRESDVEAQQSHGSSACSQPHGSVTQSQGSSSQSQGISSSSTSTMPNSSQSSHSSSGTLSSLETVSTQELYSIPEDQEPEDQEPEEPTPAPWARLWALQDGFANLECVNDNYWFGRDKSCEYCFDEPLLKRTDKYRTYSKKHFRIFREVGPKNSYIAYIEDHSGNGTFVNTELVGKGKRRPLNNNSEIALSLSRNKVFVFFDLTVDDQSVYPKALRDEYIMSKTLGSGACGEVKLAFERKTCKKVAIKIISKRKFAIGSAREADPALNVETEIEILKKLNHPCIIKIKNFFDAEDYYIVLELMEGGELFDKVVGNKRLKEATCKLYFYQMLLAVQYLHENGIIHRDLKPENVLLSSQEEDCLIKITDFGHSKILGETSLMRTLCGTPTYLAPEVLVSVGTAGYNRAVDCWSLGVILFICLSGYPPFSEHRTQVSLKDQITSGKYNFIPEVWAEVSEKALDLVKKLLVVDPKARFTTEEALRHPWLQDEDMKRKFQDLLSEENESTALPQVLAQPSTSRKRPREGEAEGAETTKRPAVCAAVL

[3] = test system: Bladder tumors with ARID1A deficiencies

Compound: Nc1ccc(-c2ccc(N)cc2)cc1 [benzidine]
p21 mRNA levels (p21): downregulate p21 mRNA levels
p21 protein levels (p21): decrease p21 protein levels

Compound: C[As](C)(O)=S [dimethylmonothioarsinic acid]
p21 and p53 protein expression [1]: decrease in both p21 and p53 protein expression

Compound: CCCCN(CCCCO)N=O [N-butyl-N-(4-hydroxybutyl)nitrosamine]
p21 protein expression (p21 protein expression): decrease in p21 protein expression

Compound: NC1(c2ccc(-c3nc4ccn5c(=O)[nH]nc5c4cc3-c3ccccc3)cc2)CCC1 [MK-2206]
clinical activity [2]: limited clinical activity

Compound: Nc1ccc(-c2ccccc2)cc1 [4-ABP, 4-Aminobiphenyl]
mutations induced occurring at G:C base pairs (G:C base pairs): 82.9%

anti-tumor activity (CHK1): showed anti-tumor activity
Compound: COc1cc(Nc2cnc(C#N)c(O[C@H](C)CN(C)C)n2)ncc1-c1cnn(C)c1 [CCT244747]

activity in combination (CHK2): showed enhanced activity
Compound: C/C(=N\N=C(N)N)c1ccc(NC(=O)c2cc3cccc([N+](=O)[O-])c3[nH]2)cc1 [PV1019]

Compound: CC[C@H](C)n1cc(C)c2c(C(=O)NCc3c(C)cc(C)[nH]c3=O)cc(-c3ccc(N4CCNCC4)nc3)cc21 [GSK-126]
sensitivity of tumors [3]: sensitive
